The values that follow come from article PMC7901654, “Bioisosteric Discovery of NPA101.3, a Second-Generation RET/VEGFR2 Inhibitor Optimized for Single-Agent Polypharmacology” (Journal of Medicinal Chemistry, 2020).

Common to all, as to type: cell-based
One assay concerns human RET-negative cells. Kind of assay: Cell growth curves, human RET-negative cells taken together. The conditions noted are these: read-out: IC50 dose, all human RET-negative cells. Here is the method: The IC50 dose for all human RET-negative cells was >100.0 nM, confirming compound selectivity (Figure S8 and Table S4).
Nthy-ory-3-1 (10000 per well), TPC-1 (10000 per well), MZ-CRC-1 (100000 per well), TT (200000 per well), Lc-2/ad (100000 per well), BCPAP (10000 per well), 8505-C (10000 per well), PC-9 (10000 per well), A549 (10000 per well), CALU-1 (10000 per well), NIH3T3 RET/C634Y (10000 per well), and NIH3T3 HRAS/G12V (10000 per well) were seeded in six-well tissue culture plates. Cells were kept in 2% (TPC-1), 5% (Nthy-ori-3-1), or 10% (BCPAP, 8505-C, CALU-1, A549, PC-9, TT, MZ-CRC-1, and Lc-2/ad) fetal calf serum or in 2% (NIH3T3 RET/C634Y and HRAS/G12V) calf serum. Ba/F3 cells (200000 per well in 2 mL) were seeded in six-well tissue culture plates and kept in 10% fetal calf serum. The day after plating, different concentrations of the drug or vehicle were added to the medium and changed every 2–3 days. Cells were counted every day (Ba/F3), every 2 days (fibroblasts), or every 2–3 days (human cell lines). To compare cell growth, we performed an unpaired Student’s t test using the Instat software program (Graphpad Software Inc.). […] IC50 doses were calculated through a curve fitting analysis from last day of growth curves using the PRISM software program (Graphpad Software Inc.).

The subject of assay [1] is RET (either transfected or endogenously expressing) mutant cells. Briefly: Growth inhibition, all RET mutant cells (summary). The conditions noted are these: range over transfected and endogenously expressing cells; read-out: IC50, growth inhibitory effect on RET mutant cells. As to the method: Finally, NPA101.3 featured efficacy already at 1 mg/kg/day in RET-driven tumors in nude mice. […] Therefore, though in a therapeutic setting toxicity may be increased by hitting multiple targets, it is feasible that the activity of the NPA101.3 against RET-driven tumors may take advantage of a synergistic combination of cell autonomous (on tumor cell growth mediated by RET inhibition) and non-cell autonomous (on blood vessel formation mediated by VEGFR2 inhibition) effects, potentiating its effect and reducing the chances of resistance development. Several TKIs with anti-RET activity are available, and some are already registered for the treatment of different types of thyroid cancers. […]
Nthy-ory-3-1 (10000 per well), TPC-1 (10000 per well), MZ-CRC-1 (100000 per well), TT (200000 per well), Lc-2/ad (100000 per well), BCPAP (10000 per well), 8505-C (10000 per well), PC-9 (10000 per well), A549 (10000 per well), CALU-1 (10000 per well), NIH3T3 RET/C634Y (10000 per well), and NIH3T3 HRAS/G12V (10000 per well) were seeded in six-well tissue culture plates. […] Cells were counted every day (Ba/F3), every 2 days (fibroblasts), or every 2–3 days (human cell lines). […] IC50 doses were calculated through a curve fitting analysis from last day of growth curves using the PRISM software program (Graphpad Software Inc.).

For a further assay, the system named is NIH3T3 HRAS/G12V cells. Briefly: Phosphorylation and signalling Western blot in NIH3T3 HRAS/G12V cells. Conditions: up to a dose of 100.0 nM. As to the method:
Protein lysates were prepared according to standard procedures. Briefly, cells were lysed in a buffer containing 50 mM N-2-hydroxyethylpiperazine-N′-2-ethanesulfonic acid (HEPES; pH 7.5), 1% (v/v) Triton X-100, 150 mM NaCl, 5 mM EGTA, 50 mM NaF, 20 mM sodium pyrophosphate, 1 mM sodium vanadate, 2 mM phenylmethanesulfonyl fluoride (PMSF), and 1 μg/mL aprotinin. Lysates were clarified by centrifugation at 10000g for 15 min. […] Immune complexes were detected with the enhanced chemiluminescence kit (Amersham Pharmacia Biotech, Little Chalfont, U.K.). Anti-phospho-SHC (#Y317), which recognizes SHC protein when phosphorylated on Y317, was from Upstate Biotechnology Inc. (Lake Placid, NY). Anti-SHC (H-108) was from Santa Cruz Biotechnology (Santa Cruz, CA). Anti-MAPK (9101) and anti-phospho-MAPK (9102), specific for p42/44MAPK (ERK1/2) phosphorylated on Thr202/Tyr204, antibodies were from Cell Signaling Technologies (Danvers, MA). Anti-phospho-VEGFR2/KDR (2478), specific for VEGFR2/KDR phosphorylated on Tyr1175, and anti-VEGFR2/KDR (2479) were from Cell Signaling Technologies. Anti-phospho-p70S6K (9234), specific for p70S6K phosphorylated on Thr389, and anti-p70S6K (2708) were from Cell Signaling Technologies. […]

Where only a bound is given, the exact number is not on record here.

As usually defined, the IC50 is the concentration needed to halve the response being measured. Regarding `CC(C)(C)c1cc(NC(=O)Cc2ccc(-n3cnc4cc(-c5ccc(S(C)(=O)=O)cc5)ccc43)cc2)no1` [NPA101.3], the IC50 is more than 100 nM in the assay on human RET-negative cells and 0.67 to 4.17 nM in assay [1]. For the same compound, the effect on phosphorylation/signalling entry in the assay on NIH3T3 HRAS/G12V cells is “virtually no effect”.
